The source of these data is patent publication US20170000805A1, “FOOD SUPPLEMENTATION COMPOSITION CONTAINING ONE OR MORE VITAMIN D3 COMPOUNDS AND ONE OR MORE MAGNESIUM SALTS” (DSM IP ASSETS B.V., priority 2006, published 2017).

A short description of assay [1]: MgCl2 and Hy-D dosed into the rumen of fistulated cattle: urine pH, urine and blood plasma minerals. It is filed as in vivo. Here is the method: Four mature rumen fistulated cattle (approximately 600 kg […] in individual pens and offered 12 kg/day of good quality lucerne chaff throughout the experiment. After a 2 week adaptation to this diet the following treatments were applied daily over 2 weeks to each animal in a Latin Square Design: 1. no supplement (control) 2. […] 3. […]® 1.25% (5 mg 25-hydroxy vitamin D3) MgCl2 plus […]® 1.25 % Each treatment was dosed into the rumen through a cannula each morning during the 2 week experimental period. […] Urine pH was measured at time of collection; blood plasma was decanted after centrifugation and analyzed for calcium, magnesium, potassium, sodium and phosphorus by inductively coupled plasma atomic emission spectrophotometry. The results were analysed as a latin square design making comparisons between treatments after removal of any animal or period effects. The lucerne […] assayed for macro cations together with chloride and sulphur concentrations.

For assay [2] the following is noted: cited from earlier work.
Where [3] appears, read: blood samples on days 7, 13 and 14.
The mark [4] stands for this setting: urine samples on days 12, 13 and 14.

As to `[Cl-].[Cl-].[Mg+2]` [Mg, magnesium chloride], in assay [1] (setting [3]), the “Blood Plasma composition Ca2+” value was 87 mg/L, the “Blood Plasma composition K+” value is on record as 233 mg/L, the “Blood Plasma composition Mg2+” value was determined as 19 mg/L and the “Blood Plasma composition Na+” value is on record as 2280 mg/L. Moreover, in assay [1] (setting [3]), the “Blood Plasma composition Phosphorus” value was 74 mg/L. Moreover, in assay [1] (setting [4]), the “Urine Composition Ca2+” value was 397b mg/L, the “Urine Composition K+” value came to 6652 mg/L, the “Urine Composition Mg2+” value was found to be 411 mg/L and the “Urine Composition Na+” value turned out to be 444 mg/L. Further, the “Urine Composition Phosphorus” value in assay [1] (setting [4]) stood at 190 mg/L. For the same compound, the “Urine pH” value in assay [1] (urine samples on days 12, 13 and 14, measured at time of collection) is recorded as 6.20b.

Regarding `C=C1/C(=C\C=C2/CCC[C@]3(C)[C@@H]([C@H](C)CCCC(C)C)CC[C@@H]23)C[C@@H](O)C[C@@H]1O` [1-α-hydroxy vitamin D3], the “activity relative to 25-hydroxy vitamin D3” value in assay [2] is reported as “approximately 10 times”.

Regarding `C=C1/C(=C\C=C2/CCC[C@]3(C)[C@@H]([C@H](C)CCCC(C)(C)O)CC[C@@H]23)C[C@@H](O)C[C@@H]1O` [1-α-, 25-dihydroxy vitamin D3], in assay [2], the “activity relative to 25-hydroxy vitamin D3” value is “approximately 10 times”.
